Data taken from patent publication US12642794B2, “Dose regimens for use of LY3154207 in the treatment of dopaminergic CNS disorders” (Eli Lilly and Company, priority 2018, dated 2026).
Entries after “also recorded” stand apart in the source; their conditions may differ.

Assays:
Assay type in all cases: in vivo, human
[1] = HBEB plasma pharmacokinetics
Source text: Dose dependent activating adverse events were also observed in a single ascending dose study. To determine the effects of a single dose of LY3154207 was studied on wakefulness as measured by the multiple sleep latency test (MSLT) in sleep deprived healthy male subjects. HBEB was a Phase 1, single-dose, randomized, placebo-controlled, 4-period, incomplete crossover study in sleep-deprived healthy male subjects (n=17). Subjects were randomized to receive a single dose of either placebo, LY3154207 15, 30, or 75 mg (double-blind), or modafinil (open-label control). In each period, subjects were sleep deprived for approximately 26 hours before dosing and approximately 12 hours post-dose. MSLT was conducted every 2 hours until 10 hours post-dose. Analysis based on mixed-model repeated measures included treatment, period, time, and the treatment-by-time interaction as fixed effects, and subject as a random effect: overall sleep latency was the average of the 4 post-dose sleep latencies. All subjects are randomized to receive 4 out of 5 available single dose treatments (15, 30, 75 mg LY3154207, placebo or modafanil 200 mg) with all subjects receiving placebo. The washout period is at least 7 days. MSLT is the primary assessment of wakefulness. Secondary outcomes include the Karolinska Sleepiness Scale (KSS), EEG and a simple reaction performance task. […]

healthy volunteers = assay: HBEC cognition tests: Digit Symbol Substitution Test (DSST), Hopkins Verbal Learning Test (HVLT); details: 15 mg
[2] = tested on: sleep-deprived healthy male subjects; assay: HBEB sleep latency study: multiple sleep latency test (MSLT), Karolinska Sleepiness Scale; details: for effect on wakefulness / sleep latency: single doses 15 mg to 75 mg
Source text: FIG. 2: HBEB, a Phase 1, single-dose, randomized, placebo-controlled, 4-period, incomplete crossover study in sleep-deprived healthy male subjects (n=17). Effects of a single dose of LY3154207 on wakefulness as measured by the multiple sleep latency test (MSLT) in sleep deprived healthy male subjects. Sleep latency is time from start of MSLT to first detection of sleep (minutes). […] CI=confidence interval: LS-least squares: MSLT=multiple sleep latency test.
Dose dependent activating adverse events were also observed in a single ascending dose study. To determine the effects of a single dose of LY3154207 was studied on wakefulness as measured by the multiple sleep latency test (MSLT) in sleep deprived healthy male subjects. HBEB was a Phase 1, single-dose, randomized, placebo-controlled, 4-period, incomplete crossover study in sleep-deprived healthy male subjects (n=17). Subjects were randomized to receive a single dose of either placebo, LY3154207 15, 30, or 75 mg (double-blind), or modafinil (open-label control). In each period, subjects were sleep deprived for approximately 26 hours before dosing and approximately 12 hours post-dose. MSLT was conducted every 2 hours until 10 hours post-dose. Analysis based on mixed-model repeated measures included treatment, period, time, and the treatment-by-time interaction as fixed effects, and subject as a random effect: overall sleep latency was the average of the 4 post-dose sleep latencies. All subjects are randomized to receive 4 out of 5 available single dose treatments (15, 30, 75 mg LY3154207, placebo or modafanil 200 mg) with all subjects receiving placebo. The washout period is at least 7 days. MSLT is the primary assessment of wakefulness. Secondary outcomes include the Karolinska Sleepiness Scale (KSS), EEG and a simple reaction performance task. Blood samples are collected to measure plasma concentrations of LY3154207 and modafinil. Seventeen subjects are enrolled and received at least one dose of study drug with sixteen subjects completing all 4 periods of the trial. A dose dependent increase in MSLT is observed with least square means (95% CI) difference compared to placebo of 5.2 minutes (3.3,7.1) for 75 mg, 3.2 minutes (1.4, 5.1) for 30 mg, 1.3 minutes (−0.6, 3.2) for 15 mg, as shown in FIG. 2. […] PK is linear with a Cmax and t1/2 of approximately 3 and 9 hours across the dose range.

participants with PD = assay: HBEC motor examination subscore, MDS-UPDRS Part III; details: 14-day treatment, 75 mg and 75 mg titration
Experimental: FIG. 4: Study HBEC, motor symptoms in PD patients in 14-day treatment with LY3154207. Participants with PD, treated with LY3154207, motor examination subscores compared to those treated with placebo, as measured by MDS-UPDRS Part III. Cohort 5 (LY 75 mg), Cohort 6 (LY 75 mg titration) (Participants with PD in Cohort 6 received 15 mg on Days 1-3 and 30 mg on Days 4-6), Cohort 5/6 (PBO).
(§1) Study outcomes included 24-hour ambulatory blood pressure monitoring (ABPM), treatment-emergent adverse events (TEAEs), and PK assessments in both healthy subjects and participants with PD, as well as Movement Disorder Society-United Parkinson's Disease Rating Scale (MDS-UPDRS) assessments to evaluate the impact of LY3154207 on motor function in participants with PD. The objective was to explore the safety, tolerability, and pharmacokinetics (PK) of multiple oral daily dosing of LY3154207 in healthy subjects (Part A) and in participants with PD (Part B).

healthy subjects = assay: HBEC Part A multiple ascending dose study: TEAEs, vital signs, tolerability
Experimental: FIG. 3: Design of the study HBEC, a multiple ascending dose study of LY3154207, a randomized, double-blind, placebo-controlled, multiple ascending dose, parallel-group study, of healthy subjects (Part A) and participants with PD (Part B) who received once-daily doses of LY3154207 (15, 30, 75, or 150 mg in Part A and up to 75 mg in Part B) or placebo for 14 days. aEach ascending dose cohort commenced only after review of the safety data to at least Day 7 from the previous cohort. bParticipants with PD in Cohort 6 received titrated doses to determine the effect of this dosing schedule (i.e., Days 1-3:15 mg: Days 4-6:30 mg; and Days 7-14:75 mg) on cardiovascular effects. Note: All cohorts were dosed for 14 days. CRU=clinical research unit: LY=LY3154207; PBO=placebo: PD=Parkinson's disease: R=randomized.
In this randomized, double-blind, placebo-controlled, multiple ascending dose, parallel-group study, HBEC, healthy subjects (Part A) and participants with PD (Part B) received once-daily doses of LY3154207 (15, 30, 75, or 150 mg in Part A and up to 75 mg in Part B) or placebo for 14 days, as illustrated in FIG. 3.
as §1

[3] = healthy subjects, LY 15 mg once daily for 14 days (N = 9)
[4] = healthy subjects, LY 30 mg once daily for 14 days (N = 9)
[5] = healthy subjects, LY 75 mg once daily for 14 days (N = 9)
[6] = healthy subjects, LY 150 mg once daily for 14 days (N = 9)
[7] = healthy subjects, primarily at the 150 mg dose

## C[C@H]1c2cccc(CCC(C)(C)O)c2C[C@H](CO)N1C(=O)Cc1c(Cl)cccc1Cl [LY3154207]
[1]
  linearity of PK: linear
[1]; male, human, plasma, across the dose range
  half-life: ~9 h
Healthy volunteers
  Hopkins Verbal Learning Test (HVLT), improvement from baseline relative to other arms: largest average improvement from baseline
Healthy volunteers; both post dose time points
  Digit Symbol Substitution Test (DSST), change from baseline relative to other arms: highest average change from baseline; also recorded: trend for better cognitive effects
[2]; single dose 15 mg
  MSLT sleep latency, least square means difference compared to placebo: 1.3 min
[2]; single dose 30 mg
  MSLT sleep latency, least square means difference compared to placebo: 3.2 min
[2]; single dose 75 mg
  MSLT sleep latency, least square means difference compared to placebo: 5.2 min
[2]
  effect on wakefulness / sleep latency: improves wakefulness in a dose dependent manner; also recorded: linear and dose-dependent effect on sleep latency
[2]; listed as LY3144207
  effect on wakefulness / sleep latency: increases wakefulness
[2]; single doses 15, 30, 75 mg
  alertness measured by the Karolinska sleepiness scale: dose-dependent increase in alertness
Participants with PD
  motor examination subscore, MDS-UPDRS Part III, compared to placebo: more consistent improvement
Healthy subjects; healthy subjects
  incidence of TEAEs following multiple dosing: dose-dependent increase
  severe or serious TEAEs: no severe or serious TEAEs
Healthy subjects; [3]
  Number of TEAEs: 6
  Number of TEAEs, Mild: 6
  Number of TEAEs, Moderate: 0
  Subjects with ≥1 TEAE, (%): (44.4) %
Healthy subjects; [4]
  Number of TEAEs: 5
  Number of TEAEs, Mild: 5
  Number of TEAEs, Moderate: 0
  Subjects with ≥1 TEAE, (%): (55.6) %
Healthy subjects; [5]
  Number of TEAEs: 6
  Number of TEAEs, Mild: 6
  Number of TEAEs, Moderate: 0
  Subjects with ≥1 TEAE, (%): (33.3) %
Healthy subjects; [6]
  Number of TEAEs: 35
  Number of TEAEs, Mild: 35
  Number of TEAEs, Moderate: 0
  Subjects with ≥1 TEAE, (%): (88.9) %
Healthy subjects; [7]
  dizziness, treatment-related AE: 3 n
  insomnia, treatment-related AE: 4 n
  nausea, treatment-related AE: 2 n
  nervousness, treatment-related AE: 3 n
  palpitations, treatment-related AE: 3 n
Healthy subjects; healthy subjects, repeated dosing
  course of the initial increase in SBP, DBP, and pulse rate: showed accommodation with repeated dosing
Healthy subjects; up to 150 mg in healthy subjects
  tolerability of multiple once-daily doses: well tolerated
